Data reported in US11180462B2, “Microbiocidal oxadiazole derivatives” (SYNGENTA PARTICIPATIONS AG, priority 2015, dated 2021).

Assays:
[1] = tested on: Glomerella lagenarium (Colletotrichum lagenarium); assay: Fungicidal activity against Glomerella lagenarium (Colletotrichum lagenarium) liquid culture / cucumber / preventative (anthracnose); type: cell-based; conditions: Colletotrichum orbiculare; 20 ppm in the applied formulation; liquid culture (PDB), growth inhibition measured photometrically after 3 to 4 days; compared to untreated control; read-out: disease control
Procedure, shortened: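 Percent activity against the untreated check was derived from photometric growth measurements made 2 to 7 days after conidia in potato dextrose broth were combined with compound at 20 ppm. Cultures were kept dark at 24 °C and 96% humidity.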

[2] = tested on: Puccinia recondita f. Sp. Tritici; assay: Fungicidal activity against Puccinia recondita f. sp. tritici / wheat / leaf disc preventative (brown rust); type: in vivo; conditions: foliar, 200 ppm in the applied formulation, wheat leaf segments, preventative, compared to untreated control leaf disks, read-out: disease control
Procedure, shortened: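 200 ppm spray on wheat cv. Kanzler leaf segments; spore inoculation +1 day; 19° C., 75% rh, 12 h/12 h light cycle; single rating of % control vs untreated at 7 to 9 days.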

[3] = tested on: Puccinia recondita f. Sp. Tritici; assay: Fungicidal activity against Puccinia recondita f. sp. tritici / wheat / leaf disc curative (brown rust); type: in vivo; conditions: foliar, 24 h, 200 ppm in the applied formulation, wheat leaf segments, curative (applied 1 day after inoculation), compared to untreated control leaf disks, read-out: disease control
Procedure, shortened: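 Curative leaf-segment test: compound diluted in water applied 1 day after spore inoculation of cv. Kanzler wheat segments on agar. Conditions 19° C, 75% RH, 12 h/12 h light cycle. Read-out: % disease control relative to untreated check, 6 to 8 days after application.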

[4] = tested on: Phakopsora Pachyrhizi; assay: Fungicidal activity against Phakopsora pachyrhizi / soybean / leaf disc preventative (Asian soybean rust); type: in vivo; conditions: foliar, 200 ppm in the applied formulation, soybean leaf disks, compared to untreated control leaf disks, read-out: disease control
Procedure, shortened: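 Scored 12 to 14 days post-application as percent control relative to untreated check discs, rust spores were sprayed under the disc one day after compound treatment. Incubation: 20°C, 75% rh, first 24–36 h in darkness, then 12 h daily light; discs kept on water agar.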

CCON(Cc1ccc(-c2noc(C(F)(F)F)n2)cc1)C(=O)C(C)CC (centres unmarked) [Compound 1.622, N-ethoxy-2-methyl-N-[[4-[5-(trifluoromethyl)-1,2,4-oxadiazol-3-yl]phenyl]methyl]-butanamide]
≥ 80%: inhibition of growth at 20 ppm [1] | pest or weed control at 200 ppm [2] | pest or weed control at 200 ppm [3] | pest or weed control at 200 ppm [4]

CCON(Cc1ccc(-c2noc(C(F)(F)F)n2)cc1)C(=O)C1(C)COC1 [Compound 1.623, N-ethoxy-3-methyl-N-[[4-[5-(trifluoromethyl)-1,2,4-oxadiazol-3-yl]phenyl]methyl]-oxetane-3-carboxamide]
≥ 80%: inhibition of growth at 20 ppm [1] | pest or weed control at 200 ppm [2] | pest or weed control at 200 ppm [3] | pest or weed control at 200 ppm [4]

CCON(Cc1ccc(-c2noc(C(F)(F)F)n2)cc1)C(=O)C(CC)COC (centres unmarked) [Compound 1.624, N-ethoxy-2-(methoxymethyl)-N-[[4-[5-(trifluoromethyl)-1,2,4-oxadiazol-3-yl]phenyl]methyl]-butanamide]
≥ 80%: inhibition of growth at 20 ppm [1] | pest or weed control at 200 ppm [2] | pest or weed control at 200 ppm [3] | pest or weed control at 200 ppm [4]

CCON(Cc1ccc(-c2noc(C(F)(F)F)n2)cc1)C(=O)CCCOC [Compound 1.625, N-ethoxy-4-methoxy-N-[[4-[5-(trifluoromethyl)-1,2,4-oxadiazol-3-yl]phenyl]methyl]-butanamide]
≥ 80%: inhibition of growth at 20 ppm [1] | pest or weed control at 200 ppm [2] | pest or weed control at 200 ppm [3] | pest or weed control at 200 ppm [4]

CCON(Cc1ccc(-c2noc(C(F)(F)F)n2)cc1)C(=O)C1CCCO1 (centres unmarked) [Compound 1.626, N-ethoxy-N-[[4-[5-(trifluoromethyl)-1,2,4-oxadiazol-3-yl]phenyl]methyl]-tetrahydrofuran-2-carboxamide]
≥ 80%: inhibition of growth at 20 ppm [1] | pest or weed control at 200 ppm [2] | pest or weed control at 200 ppm [3] | pest or weed control at 200 ppm [4]

CCON(Cc1ccc(-c2noc(C(F)(F)F)n2)cc1)C(=O)C(C)OC (centres unmarked) [Compound 1.629, N-ethoxy-2-methoxy-N-[[4-[5-(trifluoromethyl)-1,2,4-oxadiazol-3-yl]phenyl]methyl]-propanamide]
≥ 80%: inhibition of growth at 20 ppm [1] | pest or weed control at 200 ppm [2] | pest or weed control at 200 ppm [3] | pest or weed control at 200 ppm [4]

CCON(Cc1ccc(-c2noc(C(F)(F)F)n2)cc1)C(C)=O [Compound 1.631, N-ethoxy-N-[[4-[5-(trifluoromethyl)-1,2,4-oxadiazol-3-yl]phenyl]methyl]-acetamide]
≥ 80%: inhibition of growth at 20 ppm [1] | pest or weed control at 200 ppm [2] | pest or weed control at 200 ppm [3] | pest or weed control at 200 ppm [4]

CCCN(Cc1ccc(-c2noc(C(F)(F)F)n2)cc1)C(=O)C(C)C [Compound 1.651, 2-methyl-N-propyl-N-[[4-[5-(trifluoromethyl)-1,2,4-oxadiazol-3-yl]phenyl]methyl]-propanamide]
≥ 80%: inhibition of growth at 20 ppm [1] | pest or weed control at 200 ppm [2] | pest or weed control at 200 ppm [3] | pest or weed control at 200 ppm [4]

CCCN(Cc1ccc(-c2noc(C(F)(F)F)n2)cc1)C(=O)C1CC1(F)F (centres unmarked) [Compound 1.652, 2,2-difluoro-N-propyl-N-[[4-[5-(trifluoromethyl)-1,2,4-oxadiazol-3-yl]phenyl]methyl]-cyclopropane-carboxamide]
≥ 80%: inhibition of growth at 20 ppm [1] | pest or weed control at 200 ppm [2] | pest or weed control at 200 ppm [3] | pest or weed control at 200 ppm [4]

CCCN(Cc1ccc(-c2noc(C(F)(F)F)n2)cc1)C(=O)C1CCOC1 (centres unmarked) [Compound 1.654, N-propyl-N-[[4-[5-(trifluoromethyl)-1,2,4-oxadiazol-3-yl]phenyl]methyl]-tetrahydrofuran-3-carboxamide]
≥ 80%: inhibition of growth at 20 ppm [1] | pest or weed control at 200 ppm [2] | pest or weed control at 200 ppm [3] | pest or weed control at 200 ppm [4]

CCCN(Cc1ccc(-c2noc(C(F)(F)F)n2)cc1)C(=O)CCOC [Compound 1.655, 3-methoxy-N-propyl-N-[[4-[5-(trifluoromethyl)-1,2,4-oxadiazol-3-yl]phenyl]methyl]-propanamide]
≥ 80%: inhibition of growth at 20 ppm [1] | pest or weed control at 200 ppm [2] | pest or weed control at 200 ppm [3] | pest or weed control at 200 ppm [4]

CCCN(Cc1ccc(-c2noc(C(F)(F)F)n2)cc1)C(=O)C1CCC1 [Compound 1.656, N-propyl-N-[[4-[5-(trifluoromethyl)-1,2,4-oxadiazol-3-yl]phenyl]methyl]-cyclobutane-carboxamide]
≥ 80%: inhibition of growth at 20 ppm [1] | pest or weed control at 200 ppm [2] | pest or weed control at 200 ppm [3] | pest or weed control at 200 ppm [4]

CCCN(Cc1ccc(-c2noc(C(F)(F)F)n2)cc1)C(=O)C1(C)CC1 [Compound 1.658, 1-methyl-N-propyl-N-[[4-[5-(trifluoromethyl)-1,2,4-oxadiazol-3-yl]phenyl]methyl]-cyclopropane-carboxamide]
≥ 80%: inhibition of growth at 20 ppm [1] | pest or weed control at 200 ppm [2] | pest or weed control at 200 ppm [3] | pest or weed control at 200 ppm [4]

CCCN(Cc1ccc(-c2noc(C(F)(F)F)n2)cc1)C(=O)C(C)CC (centres unmarked) [Compound 1.659, 2-methyl-N-propyl-N-[[4-[5-(trifluoromethyl)-1,2,4-oxadiazol-3-yl]phenyl]methyl]-butanamide]
≥ 80%: inhibition of growth at 20 ppm [1] | pest or weed control at 200 ppm [2] | pest or weed control at 200 ppm [3] | pest or weed control at 200 ppm [4]

CCCN(Cc1ccc(-c2noc(C(F)(F)F)n2)cc1)C(=O)C1(C)COC1 [Compound 1.660, 3-methyl-N-propyl-N-[[4-[5-(trifluoromethyl)-1,2,4-oxadiazol-3-yl]phenyl]methyl]-oxetane-3-carboxamide]
≥ 80%: inhibition of growth at 20 ppm [1] | pest or weed control at 200 ppm [2] | pest or weed control at 200 ppm [3] | pest or weed control at 200 ppm [4]

CCCN(Cc1ccc(-c2noc(C(F)(F)F)n2)cc1)C(=O)C(CC)COC (centres unmarked) [Compound 1.661, 2-(methoxymethyl)-N-propyl-N-[[4-[5-(trifluoromethyl)-1,2,4-oxadiazol-3-yl]phenyl]methyl]-butanamide]
≥ 80%: inhibition of growth at 20 ppm [1] | pest or weed control at 200 ppm [2] | pest or weed control at 200 ppm [3] | pest or weed control at 200 ppm [4]

CCCN(Cc1ccc(-c2noc(C(F)(F)F)n2)cc1)C(=O)CCCOC [Compound 1.662, 4-methoxy-N-propyl-N-[[4-[5-(trifluoromethyl)-1,2,4-oxadiazol-3-yl]phenyl]methyl]-butanamide]
≥ 80%: inhibition of growth at 20 ppm [1] | pest or weed control at 200 ppm [2] | pest or weed control at 200 ppm [3] | pest or weed control at 200 ppm [4]

CCCN(Cc1ccc(-c2noc(C(F)(F)F)n2)cc1)C(=O)C1CCCO1 (centres unmarked) [Compound 1.663, N-propyl-N-[[4-[5-(trifluoromethyl)-1,2,4-oxadiazol-3-yl]pheny1]methyl]-tetrahydrofuran-2-carboxamide]
≥ 80%: inhibition of growth at 20 ppm [1] | pest or weed control at 200 ppm [2] | pest or weed control at 200 ppm [3] | pest or weed control at 200 ppm [4]

CCCN(Cc1ccc(-c2noc(C(F)(F)F)n2)cc1)C(=O)CC#N [Compound 1.664, 2-cyano-N-propyl-N-[[4-[5-(trifluoromethyl)-1,2,4-oxadiazol-3-yl]phenyl]methyl]-acetamide]
≥ 80%: inhibition of growth at 20 ppm [1] | pest or weed control at 200 ppm [2] | pest or weed control at 200 ppm [3] | pest or weed control at 200 ppm [4]

CCCN(Cc1ccc(-c2noc(C(F)(F)F)n2)cc1)C(=O)C1(C#N)CC1 [Compound 1.665, 1-cyano-N-propyl-N-[[4-[5-(trifluoromethyl)-1,2,4-oxadiazol-3-yl]phenyl]methyl]-cyclopropane-carboxamide]
≥ 80%: inhibition of growth at 20 ppm [1] | pest or weed control at 200 ppm [2] | pest or weed control at 200 ppm [3] | pest or weed control at 200 ppm [4]

CCCN(Cc1ccc(-c2noc(C(F)(F)F)n2)cc1)C(=O)C(C)OC (centres unmarked) [Compound 1.666, 2-methoxy-N-propyl-N-[[4-[5-(trifluoromethyl)-1,2,4-oxadiazol-3-yl]phenyl]methyl]-propanamide]
≥ 80%: inhibition of growth at 20 ppm [1] | pest or weed control at 200 ppm [2] | pest or weed control at 200 ppm [3] | pest or weed control at 200 ppm [4]

CCCN(Cc1ccc(-c2noc(C(F)(F)F)n2)cc1)C(C)=O [Compound 1.668, N-propyl-N-[[4-[5-(trifluoromethyl)-1,2,4-oxadiazol-3-yl]phenyl]methyl]-acetamide]
≥ 80%: inhibition of growth at 20 ppm [1] | pest or weed control at 200 ppm [2] | pest or weed control at 200 ppm [3] | pest or weed control at 200 ppm [4]

CCCN(Cc1ccc(-c2noc(C(F)(F)F)n2)cc1)C(=O)CC1CC1 [Compound 1.669, 2-cyclopropyl-N-propyl-N-[[4-[5-(trifluoromethyl)-1,2,4-oxadiazol-3-yl]phenyl]methyl]-acetamide]
≥ 80%: inhibition of growth at 20 ppm [1] | pest or weed control at 200 ppm [2] | pest or weed control at 200 ppm [3] | pest or weed control at 200 ppm [4]
